Results on 25 molecules are retold here after patent US20250270213A1, “PI3Ka INHIBITORS” (Synnovation Therapeutics, Inc., priority 2022, published 2025).

The experiment concerns T47D (PIK3CA H1047R) cells. The experiment can be described thus: pS473 AKT assay with 2.5% FBS, T47D cells. It counts as cell-based. Particulars: Homo sapiens, pSer473 AKT, DMEM with 2.5% FBS, 2 h treatment, read-out: T47D_IC50. A digest of the protocol:
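T47D (PIK3CA H1047R) cells were switched to DMEM with 2.5% FBS and exposed to compounds for 2 h. After paraformaldehyde fixation, pSer473 AKT was detected by in-cell ELISA (rabbit primary, HRP anti-rabbit secondary, chemiluminescence); IC50 values were fitted from the concentration series.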
Turning to `Cc1cc(C(C)Nc2ccc(Cl)nc2-c2ncn(C)n2)c2c(c1)c(=O)n(C)c1c2cnn1C1CN(C[C@@H](C)O)C1` (stereo partly drawn) [Compound 92, 9-(1-((6-chloro-2-(1-methyl-1H-1,2,4-triazol-3-yl)pyridin-3-yl)amino)ethyl)-3-(1-((R)-2-hydroxypropyl)azetidin-3-yl)-4,7-dimethyl-3,4-dihydro-5H-pyrazolo[3,4-c]isoquinolin-5-one], the IC50 was less than 1000 nM. As for `CC(=O)N1CC(n2ncc3c4c(C(C)Nc5ccc(Cl)nc5-c5ncn(C)n5)cc(C)cc4c(=O)n(C)c32)C1` (stereo not shown) [Compound 97, 3-(1-Acetylazetidin-3-yl)-9-(1-((6-chloro-2-(1-methyl-1H-1,2,4-triazol-3-yl)pyridin-3-yl)amino)ethyl)-4,7-dimethyl-3,4-dihydro-5H-pyrazolo[3,4-c]isoquinolin-5-one], the IC50 is less than 1000 nM.

As for `Cc1cc(C(C)Nc2ccc(Cl)nc2-c2ccn(C)c(=O)c2)c2c(c1)c(=O)n(C)c1c2cnn1C1CCN(C)CC1` (stereo not shown) [Compound 171, 9-[1-[[6-chloro-2-(1-methyl-2-oxo-4-pyridyl)-3-pyridyl]amino]ethyl]-4,7-dimethyl-3-(1-methyl-4-piperidyl)pyrazolo[3,4-c]isoquinolin-5-one], the IC50 was less than 1000 nM. Regarding `CCn1c(=O)c2cc(C)cc(C(C)Nc3ccc(Cl)nc3-c3ncn(C)n3)c2c2cnn(C3CCN(C(C)=O)C3)c21` (stereo not shown) [Compound 149, 3-(1-acetylpyrrolidin-3-yl)-9-(1-((6-chloro-2-(1-methyl-1H-1,2,4-triazol-3-yl)pyridin-3-yl)amino)ethyl)-4-ethyl-7-methyl-3,4-dihydro-5H-pyrazolo[3,4-c]isoquinolin-5-one], the IC50 was less than 1000 nM. As to `Cc1cc(C(C)Nc2ccc(Cl)nc2-c2ccc(=O)n(C)c2)c2c(c1)c(=O)n(C)c1c2cnn1C1CCN(C)CC1` (stereo not shown) [Compound 166, 9-[1-[[6-chloro-2-(1-methyl-6-oxo-3-pyridyl)-3-pyridyl]amino]ethyl]-4,7-dimethyl-3-(1-methyl-4-piperidyl)pyrazolo[3,4-c]isoquinolin-5-one], the IC50 is less than 1000 nM. For the molecule `Cc1cc(C(C)Nc2ccc(Cl)nc2-c2ccc3ncccc3c2)c2c(c1)c(=O)n1c3c2cnn3CCC1` (stereo not shown) [Compound 315, 10-(1-((6-chloro-2-(quinolin-6-yl)pyridin-3-yl)amino)ethyl)-8-methyl-4,5-dihydro-3H,6H-2,2a,5a-triazaaceanthrylen-6-one], the IC50 is less than 1000 nM. Regarding `CNC(=O)c1ccc(-c2nc(Cl)ccc2NC(C)c2cc(C)cc3c(=O)n(C)c4c(cnn4CCO)c23)cc1F` (stereo not shown) [Example 243, 4-(6-chloro-3-((1-(3-(2-hydroxyethyl)-4,7-dimethyl-5-oxo-4,5-dihydro-3H-pyrazolo[3,4-c]isoquinolin-9-yl)ethyl)amino)pyridin-2-yl)-2-fluoro-N-methylbenzamide], the IC50 is less than 1000 nM.

Consider `Cc1cc(C(C)Nc2ccc(Cl)nc2-c2noc(=O)[nH]2)c2c(c1)c(=O)n(C)c1nn(C3CCOCC3)cc21` (stereo not shown) [Example 200, 3-(6-chloro-3-((1-(4,7-dimethyl-5-oxo-2-(tetrahydro-2H-pyran-4-yl)-4,5-dihydro-2H-pyrazolo[3,4-c]isoquinolin-9-yl)ethyl)amino)pyridin-2-yl)-1,2,4-oxadiazol-5(4H)-one], for which the IC50 was less than 1000 nM. Regarding `Cc1cc(C(C)Nc2ccc(Cl)nc2-c2ncn(C)n2)c2c(c1)c(=O)n(C)c1c2cnn1C1CCN(C(=O)C2(C#N)CC2)CC1` (stereo not shown) [Example 194, 1-(4-(9-(1-((6-chloro-2-(1-methyl-1H-1,2,4-triazol-3-yl)pyridin-3-yl)amino)ethyl)-4,7-dimethyl-5-oxo-4,5-dihydro-3H-pyrazolo[3,4-c]isoquinolin-3-yl)piperidine-1-carbonyl)cyclopropane-1-carbonitrile], the IC50 was less than 1000 nM. As for `CCn1ncc2c3c(C(C)Nc4ccc(C)nc4-c4noc(=O)[nH]4)cc(C)cc3c(=O)n(C)c21` (stereo not shown) [Compound 327, 3-(3-((1-(3-Ethyl-4,7-dimethyl-5-oxo-4,5-dihydro-3H-pyrazolo[3,4-c]isoquinolin-9-yl)ethyl)amino)-6-methylpyridin-2-yl)-1,2,4-oxadiazol-5(4H)-one], the IC50 was less than 1000 nM. Regarding `Cc1cc(C(C)Nc2ccc(Cl)nc2-c2ccnc(C)c2)c2c(c1)c(=O)n1c3c2cnn3CCC1` (stereo not shown) [Compound 306, 10-(1-((6-chloro-2′-methyl-[2,4′-bipyridin]-3-yl)amino)ethyl)-8-methyl-4,5-dihydro-3H,6H-2,2a,5a-triazaaceanthrylen-6-one], the IC50 was less than 1000 nM. Consider `CCn1ncc2c3c(C(C)Nc4ccc(Cl)nc4C(=O)O)cc(C)cc3c(=O)n(C)c21` (stereo not shown) [Compound I-19, 6-Chloro-3-((1-(3-ethyl-4,7-dimethyl-5-oxo-4,5-dihydro-3H-pyrazolo[3,4-c]isoquinolin-9-yl)ethyl)amino)picolinic acid], for which the IC50 is less than 1000 nM. For `CC(=O)N1CC(n2ncc3c4c(C(C)Nc5ccc(Cl)nc5-c5ncn(CCO)n5)cc(C)cc4c(=O)n(C)c32)C1` (stereo not shown) [Compound 102, 3-(1-acetylazetidin-3-yl)-9-(1-((6-chloro-2-(1-(2-hydroxyethyl)-1H-1,2,4-triazol-3-yl)pyridin-3-yl)amino)ethyl)-4,7-dimethyl-3,4-dihydro-5H-pyrazolo[3,4-c]isoquinolin-5-one], the IC50 fell in the range of 1000 to 5000 nM. Consider `Cc1cc(C(C)Nc2ccc(Cl)nc2-c2cnn(C)c2)c2c(c1)c(=O)n(C)c1c2cnn1C1CCN(C)C1` (stereo not shown) [Compound 135, 9-(1-((6-Chloro-2-(1-methyl-1H-pyrazol-4-yl)pyridin-3-yl)amino)ethyl)-4,7-dimethyl-3-(1-methylpyrrolidin-3-yl)-3,4-dihydro-5H-pyrazolo[3,4-c]isoquinolin-5-one], for which the IC50 is less than 1000 nM. `Cc1cc(C(C)Nc2ccc(Cl)nc2-c2cnn(C)c2)c2c(c1)c(=O)n(C)c1c2cnn1C1CCN(S(=O)(=O)C2CC2)CC1` (stereo not shown) [Example 185, 9-[1-[[6-chloro-2-(1-methylpyrazol-4-yl)-3-pyridyl]amino]ethyl]-3-(1-cyclopropylsulfonyl-4-piperidyl)-4,7-dimethyl-pyrazolo[3,4-c]isoquinolin-5-one]: the IC50 is less than 1000 nM. `Cc1cc(C(C)Nc2ccc(Cl)nc2-c2ccncc2F)c2c(c1)c(=O)n(C)c1c2cnn1CCN1CCN(C)CC1` (stereo not shown) [Example 265, 9-(1-((6-chloro-3′-fluoro-[2,4′-bipyridin]-3-yl)amino)ethyl)-4,7-dimethyl-3-(2-(4-methylpiperazin-1-yl)ethyl)-3,4-dihydro-5H-pyrazolo[3,4-c]isoquinolin-5-one]: the IC50 is less than 1000 nM. As for `CCn1ncc2c3c(C(CO)Nc4ccc(Cl)nc4-c4cnn(C)c4)cc(C)cc3c(=O)n(C)c21` (stereo not shown) [Compound 77, 9-(1-((6-Chloro-2-(1-methyl-1H-pyrazol-4-yl)pyridin-3-yl)amino)-2-hydroxyethyl)-3-ethyl-4,7-dimethyl-3,4-dihydro-5H-pyrazolo[3,4-c]isoquinolin-5-one], the IC50 is less than 1000 nM. With `CNC(=O)C1CCN(c2nc(Cl)ccc2NC(C)c2cc(C)cc3c(=O)n4c5c(cnn5CCC4)c23)CC1` (stereo not shown) [Compound 292, 1-(6-chloro-3-((1-(8-methyl-6-oxo-4,5-dihydro-3H,6H-2,2a,5a-triazaaceanthrylen-10-yl)ethyl)amino)pyridin-2-yl)-N-methylpiperidine-4-carboxamide], the IC50 was less than 1000 nM.

As for `Cc1cc(C(C)Nc2ccc(Cl)nc2-c2c[nH]nc2C)c2c(c1)c(=O)n(C)c1c(C(=O)N(C)C)ncn21` (stereo not shown) [Compound 124, 9-(1-((6-Chloro-2-(3-methyl-1H-pyrazol-4-yl)pyridin-3-yl)amino)ethyl)-N,N,4,7-tetramethyl-5-oxo-4,5-dihydroimidazo[1,5-a]quinazoline-3-carboxamide], the IC50 is less than 1000 nM.

On to `CC(=O)N1CCC(n2ncc3c4c(C(C)Nc5ccc(Cl)nc5-c5ncn(C)n5)cc(C)cc4c(=O)n(C)c32)CC1` (stereo not shown) [Example 188, 3-(1-acetylpiperidin-4-yl)-9-(1-((6-chloro-2-(1-methyl-1H-1,2,4-triazol-3-yl)pyridin-3-yl)amino)ethyl)-4,7-dimethyl-3,4-dihydro-5H-pyrazolo[3,4-c]isoquinolin-5-one], for which the IC50 is less than 1000 nM. For `Cc1cc(C(C)Nc2ccc(Cl)nc2-c2ncn(C)n2)c2c(c1)c(=O)n(C)c1c2cnn1C1CCN(CCC#N)CC1` (stereo not shown) [Compound 180, 3-[4-[9-[1-[[6-Chloro-2-(1-methyl-1,2,4-triazol-3-yl)-3-pyridyl]amino]ethyl]-4,7-dimethyl-5-oxo-pyrazolo[3,4-c]isoquinolin-3-yl]-1-piperidyl]propanenitrile], the IC50 is less than 1000 nM.

Consider `Cc1cc(C(C)Nc2ccc(F)cc2-c2cnn(C)c2)c2c(c1)c(=O)n(C)c1c(C(=O)N(C)C)ncn21` (stereo not shown) [Compound 128, 9-(1-((4-fluoro-2-(1-methyl-1H-pyrazol-4-yl)phenyl)amino)ethyl)-N,N,4,7-tetramethyl-5-oxo-4,5-dihydroimidazo[1,5-a]quinazoline-3-carboxamide], for which the IC50 was less than 1000 nM. With `Cc1ncn2c3c(C(C)Nc4ccccc4C(=O)O)cc(Cl)cc3c(=O)n(C)c12` (stereo not shown) [Compound I-11, 2-((1-(7-Chloro-3,4-dimethyl-5-oxo-4,5-dihydroimidazo[1,5-a]quinazolin-9-yl)ethyl)amino)benzoic acid] the figure was less than 1000 nM; with `Cc1cc(C(C)Nc2ccccc2C(=O)O)c2c(c1)c(=O)n(C)c1nn(-c3ccnc(F)c3)cc21` (stereo not shown) [Compound I-29, 2-((1-(2-(2-Fluoropyridin-4-yl)-4,7-dimethyl-5-oxo-4,5-dihydro-2H-pyrazolo[3,4-c]isoquinolin-9-yl)ethyl)amino)benzoic acid], less than 1000 nM; with `Cc1cc(C(C)Nc2ccc(Cl)nc2-c2nnco2)c2c(c1)c(=O)n1c3c2cnn3CCC1` (stereo not shown) [Compound 294, 10-(1-((6-chloro-2-(1,3,4-oxadiazol-2-yl)pyridin-3-yl)amino)ethyl)-8-methyl-4,5-dihydro-3H,6H-2,2a,5a-triazaaceanthrylen-6-one], less than 1000 nM.
